Experimental data taken from ChEMBL document CHEMBL6074653, “Reversal of insulin resistance to combat type 2 diabetes mellitus by newer thiazolidinedione's in fructose induced insulin resistant rats” (Eur J Med Chem, 2024).
The source made the active and inactive calls. No cut-off for these calls is given here.

How the values were obtained:
[1] = AUC (0 to infinity) in male Wistar rat at 10 mg/kg, po measured upto 24 hrs; format: ADME, organism-based; conditions: in vivo
[2] = Acute toxicity in male Wistar rat assessed as body weight gain at 10 mg/kg, po administered for 15 days; format: organism-based; conditions: in vivo, 360 h, time 15 day
[3] = test system: L6; test: Induction of glucose uptake in rat L6 cells incubated for 24 hrs by GOD-POD technique; format: functional; parameters: concentration or dose not given beside the values
[4] = Cmax in male Wistar rat at 10 mg/kg, po measured upto 24 hrs; format: ADME, organism-based; conditions: in vivo
[5] = Drug recovery in rat plasma at 150 mg/kg, po by HPLC analysis; format: ADME, organism-based; conditions: in vivo
[6] = test system: Rattus norvegicus; test: Anti-diabetic activity in fructose-treated male Wistar rat assessed as increase in CAT level in liver at 10 mg/kg, po administered for 15 days (reference value: 27.65 +/-1.02 U/min); format: functional; conditions: time 15 day
[7] = Drug recovery in rat plasma at 100 mg/kg, po by HPLC analysis; format: ADME, organism-based; conditions: in vivo
[8] = test system: Rattus norvegicus; test: Anti-diabetic activity in fructose-treated male Wistar rat assessed as decrease in fasting blood glucose level at 10 mg/kg, po administered for 15 days; format: functional, organism-based; conditions: time 15.0 day
[9] = test system: Rattus norvegicus; test: Anti-diabetic activity in fructose-treated male Wistar rat assessed as decrease in HOMO-IR level at 10 mg/kg, po administered for 15 days; format: functional, organism-based; conditions: time 15.0 day
[10] = test system: Rattus norvegicus; test: Anti-diabetic activity in fructose-treated male Wistar rat assessed as decrease in MDA level in liver at 10 mg/kg, po administered for 15 days (reference value: 294.65 +/-11.78 nM/mg ); format: functional; conditions: time 15 day
[11] = test system: Rattus norvegicus; test: Anti-diabetic activity in fructose-treated male Wistar rat assessed as change in HOMO-IR level at 10 mg/kg, po administered for 15 days; format: functional, organism-based; conditions: time 15.0 day
[12] = Retention time of the compound by HPLC analysis; format: physicochemical
[13] = test system: Rattus norvegicus; test: Anti-diabetic activity in fructose-treated male Wistar rat assessed as increase in glycogen content in liver at 10 mg/kg, po administered for 15 days; format: functional, organism-based; conditions: time 15.0 day
[14] = test system: Rattus norvegicus; test: Anti-diabetic activity in Wistar rat Diaphragm assessed as […] at 10 mg/kg, po administered for 15 days; format: functional, organism-based; conditions: time 15.0 day
[15] = test system: Rattus norvegicus; test: Anti-diabetic activity in fructose-treated male Wistar rat assessed as increase in LDL level at 10 mg/kg, po administered for 15 days (reference value: 40.32 +/-1.08 mg/dL); format: functional; conditions: time 15 day
[16] = test system: Rattus norvegicus; test: Anti-diabetic activity in fructose-treated male Wistar rat assessed as increase in glycogen content in skeletal muscle at 10 mg/kg, po administered for 15 days; format: functional, organism-based; conditions: time 15.0 day
[17] = test system: Rattus norvegicus; test: Anti-diabetic activity in fructose-treated male Wistar rat assessed as decrease in SGOT level at 10 mg/kg, po administered for 15 days (reference value: […]); format: functional; conditions: time 15 day
[18] = Drug recovery in rat plasma at 50 mg/kg, po by HPLC analysis; format: ADME, organism-based; conditions: in vivo
[19] = test system: Rattus norvegicus; test: Anti-diabetic activity in fructose-treated male Wistar rat assessed as increase in SOD level in liver at 10 mg/kg, po administered for 15 days (reference value: 13.25 +/-1.35 U/ml); format: functional; conditions: time 15 day
[20] = test system: Rattus norvegicus; test: Anti-diabetic activity in fructose-treated male Wistar rat assessed as decrease in triglycerides level at 10 mg/kg, po administered for 15 days (reference value: 140.03 +/-3.55 mg/dL); format: functional; conditions: time 15 day
[21] = Tmax in male Wistar rat at 10 mg/kg, po measured upto 24 hrs; format: ADME, organism-based; conditions: in vivo
[22] = test system: Rattus norvegicus; test: Anti-diabetic activity in fructose-treated male Wistar rat assessed as increase in total cholesterol level at 10 mg/kg, po administered for 15 days (reference value: 93.68 +/-1.68 mg/dL); format: functional; conditions: time 15 day
[23] = Half life in male Wistar rat at 10 mg/kg, po measured upto 24 hrs; format: ADME, organism-based; conditions: in vivo
[24] = test system: Rattus norvegicus; test: Anti-diabetic activity in fructose-treated male Wistar rat assessed as increase in GSH level in liver at 10 mg/kg, po administered for 15 days (reference value: 39.98 +/-0.86 nM/mg ); format: functional; conditions: time 15 day
[25] = test system: Rattus norvegicus; test: Anti-diabetic activity in fructose-treated male Wistar rat assessed as decrease in insulin level at 10 mg/kg, po administered for 15 days by insulin tolerance test; format: functional, organism-based; conditions: time 15.0 day
[26] = test system: Rattus norvegicus; test: Anti-diabetic activity in fructose-treated male Wistar rat assessed as decrease in VLDL level at 10 mg/kg, po administered for 15 days (reference value: 28 +/-0.28 mg/dL); format: functional; conditions: time 15 day
[27] = test system: Rattus norvegicus; test: Anti-diabetic activity in fructose-treated male Wistar rat assessed as decrease in SGPT level at 10 mg/kg, po administered for 15 days (reference value: […]); format: functional; conditions: time 15 day
[28] = AUC (0 to t) in male Wistar rat at 10 mg/kg, po measured upto 24 hrs; format: ADME, organism-based; conditions: in vivo
[29] = test system: Rattus norvegicus; test: Anti-diabetic activity in fructose-treated male Wistar rat assessed as increase in HDL level at 10 mg/kg, po administered for 15 days (reference value: 25.35 +/-2.03 mg/dL); format: functional; conditions: time 15 day

In the case of `CCc1ccc(CCOc2ccc(CC3SC(=O)NC3=O)cc2)nc1` (centres undefined) [PIOGLITAZONE], the AUC(0-inf) [1] is reported as 43.6 µg·h/mL, the Activity [2] is reported as “Non-toxic” and the Activity [3] is reported as 82.36%. It also gave a Cmax [4] of 3.13 µg/mL, a Drug recovery [5] of 98% and an Activity [6] of 55.63 U/min. For the same molecule, the Drug recovery [7] was 97.4%, the Activity [8] was “Active” and the Activity [9] was “inactive”. For the same molecule, the Activity [10] was 178.35 nM/mg, the Activity [11] was “Active” and the Retention_time [12] was 2.4 min. For the same molecule, the Activity [13] was “Active”, the Activity [14] was “Active” and the Activity [15] was 49.35 mg/dL. For the same molecule, the Activity [16] was “Active”, the Activity [17] was 32.45 U/L and the Drug recovery [18] was 97.1%. The Activity [19] was 27.65 U/ml, the Activity [20] was 63.57 mg/dL and the Tmax [21] was 2.69 h. The Activity [22] was 122.79 mg/dL, the half-life [23] was 4.92 h and the Activity [24] was 77.65 nM/mg. The Activity [25] was “Active”, the Activity [26] was 12.7 mg/dL and the Activity [27] was 29.73 U/L. For the same molecule, the AUC(0-t) at 24 h [28] was 41.5 µg·h/mL and the Activity [29] was 60.72 mg/dL.
